Measurements published in ChEMBL document CHEMBL1157396, “Dihydroagarofuranoid sesquiterpenes, a lignan derivative, a benzenoid, and antitubercular constituents from the stem of Microtropis japonica” (2008).
Values after ≈ are worked out from the molar mass of the structure shown.

test system: Mycobacterium tuberculosis; experiment: Antitubercular activity against Mycobacterium tuberculosis H37Rv after 2 weeks by agar dilution method; format: functional; conditions: 336 h

Compound	MIC
COc1cc(C(=O)C(CO)c2cc(OC)c(O)c(OC)c2)ccc1O (stereo not drawn) [5-METHOXYEVOFOLIN B]	215 µM (≈ 74.9 µg/mL)
CCOc1cc(C=O)ccc1O [ETHYL VANILLIN]	> 400 µM
CC(=O)O[C@H]1C[C@@H](C)[C@]23OC(C)(C)[C@H]([C@H](OC(=O)c4ccccc4)[C@H](OC(=O)c4ccccc4)[C@]2(COC(=O)c2ccccc2)[C@H]1OC(C)=O)[C@H]3OC(C)=O	79.3 µM (≈ 60 µg/mL)
CC(=O)O[C@H]1C[C@@H](COC(=O)c2ccccc2)[C@]23OC(C)(C)[C@H](C[C@H](OC(=O)c4ccccc4)[C@]2(C)[C@H]1OC(C)=O)[C@H]3OC(=O)c1ccccc1	95 µM (≈ 66.4 µg/mL)
COc1cc2ccc(=O)oc2cc1OC [SCOPARONE]	388 µM (≈ 80 µg/mL)
COc1cc(C(=O)CCO)ccc1O	153 µM (≈ 30 µg/mL)
CC(=O)OC[C@]12[C@@H](OC(=O)c3ccccc3)C[C@@H]3[C@@H](OC(C)=O)[C@]1(OC3(C)C)[C@H](C)C[C@H](O)[C@@H]2OC(C)=O [SALASOL A]	28.2 µM (≈ 15 µg/mL)
COc1cc(/C=C/C=O)ccc1O [CONIFERYL ALDEHYDE]	> 400 µM
CC[C@H](CC[C@@H](C)[C@H]1CC[C@H]2[C@@H]3C(=O)C=C4C[C@@H](O)CC[C@]4(C)[C@H]3CC[C@]12C)C(C)C	128 µM (≈ 54.9 µg/mL)
CC(=O)OC[C@]12[C@@H](OC(=O)c3ccccc3)C[C@@H]3[C@@H](OC(C)=O)[C@]1(OC3(C)C)[C@H](C)C[C@H](OC(C)=O)[C@@H]2O [CELAHIN C]	31.3 µM (≈ 16.7 µg/mL)
COc1cc(/C=C\C(=O)OC[C@H](Cc2ccc(O)c(OC)c2)[C@H](COC(=O)/C=C\c2ccc(O)c(OC)c2)Cc2ccc(O)c(OC)c2)ccc1O	122 µM (≈ 87.2 µg/mL)
CC[C@H](CC[C@@H](C)[C@H]1CC[C@H]2[C@@H]3CC=C4C[C@@H](O)CC[C@]4(C)[C@H]3CC[C@]12C)C(C)C [BETA-SITOSTEROL]	> 400 µM
COc1cc(C(=O)O)ccc1O [VANILLIC ACID]	238 µM (≈ 40 µg/mL)
COc1cc(C=O)ccc1O [VANILLIN]	> 400 µM
COc1cc(C=O)cc(OC)c1O [SYRINGALDEHYDE]	> 400 µM
CC[C@@H](CO)NCCN[C@@H](CC)CO [ETHAMBUTOL]	30.6 µM (≈ 6.25 µg/mL)
COc1cc(/C=C/C(=O)OC[C@H](Cc2ccc(O)c(OC)c2)[C@H](COC(=O)/C=C/c2ccc(O)c(OC)c2)Cc2ccc(O)c(OC)c2)ccc1O	126 µM (≈ 90.1 µg/mL)
CC(=O)O[C@@H]1[C@H]2C[C@H](OC(=O)c3ccccc3)[C@]3(COC(=O)c4ccccc4)[C@@H](OC(C)=O)[C@@H](OC(=O)c4ccccc4)C[C@@H](C)[C@@]13OC2(C)C [FOKIENAGAROFURAN A]	85.9 µM (≈ 60 µg/mL)
COc1cc(O)c2c(c1)O[C@H](c1ccc(O)cc1)CC2=O [SAKURANETIN]	209 µM (≈ 59.8 µg/mL)
CN1CCCC1=O [METHYLPYRROLIDONE]	> 400 µM
CC(=O)O[C@H]1[C@@H](OC(=O)c2ccccc2)C[C@@H](C)[C@]23OC(C)(C)[C@H](C[C@H](OC(=O)c4ccccc4)[C@]12COC(=O)c1ccccc1)[C@H]3OC(=O)c1ccccc1 [FOKIENAGAROFURAN D]	105 µM (≈ 79.9 µg/mL)
CC(=O)OC[C@]12[C@@H](OC(=O)c3ccccc3)C[C@@H]3[C@@H](OC(=O)c4ccccc4)[C@]1(OC3(C)C)[C@H](C)C[C@H](OC(=O)c1ccccc1)[C@@H]2OC(C)=O	39.6 µM (≈ 27.7 µg/mL)
COc1cc(C(=O)C(CO)c2ccc(O)c(OC)c2)ccc1O (stereo not drawn) [EVOFOLIN B]	235 µM (≈ 74.8 µg/mL)
